Assays:
Chlamydia trachomatis = test: Chlamydia assay: transient treatment of Chlamydia with maleimides, infection of McCoy cells, iodine-stained inclusions counted; format: cell-based; conditions: for IODINE-STAINED INCLUSIONS/FIELD F1: field 1; for IODINE-STAINED INCLUSIONS/FIELD F2: field 2; for IODINE-STAINED INCLUSIONS/FIELD F3: field 3; for IODINE-STAINED INCLUSIONS/FIELD F4: field 4; for IODINE-STAINED INCLUSIONS/FIELD F5: field 5; for MEAN COUNT/FIELD (iodine-stained inclusions): mean of 5 fields; for COMMENTS: inclusions seen on entire coverslip: re-examined under low power; for TOTAL COUNT/FIELDS (iodine-stained inclusions): sum of 5 fields; for inhibition of the infection of McCoy cells with chlamydia: transient exposure of chlamydia to compound
Procedure: Purified Chlamydia trachomatis (250 μl) was added to 250 μl of each compound concentration and the mixtures incubated at room temperature for 5 minutes. The tubes were then centrifuged (15000 rpm, 15 minutes), the supernatant decanted and the pellet washed serum free MEM (with 0.5 mls). This step was repeated and the resultant pellet resuspended MEM (in 0.5 ml) and inoculated into a confluent shell vial (coverslip) cultures of McCoy cells. The cultures were centrifuged (3000 rpm, 1 hour at 37° C.) and incubated for a further 2 hours prior to being changed onto MEM with 10% foetal calf serum, I μg/rl cycloheximide, 0.5% added glucose, vancomycin, streptomycin and amphoteracin B (Fungizone). The cultures were incubated for 68 hours, fixed in methanol and stained with Lugol's iodine. 3 replicates of each positive control (with and without DMSO) were included, as well as 2 uninoculated cell controls. Each coverslip culture was examined using low power (10×) objective to ensure that inclusions were evenly distributed and 5 high power (×40) fields were selected at random from different areas of the coverslip. Iodine stained inclusions were counted. Where no inclusions were seen on high power, the culture was re-examined under low power. Table 1. Effect of Transient Treatment with maleimides on Chlamydia Infection of McCoy Cell In Vitro. Chlamydia was pre-treated with each of the indicated maleimides for 5 minutes and the compound removed by centrifugation. McCoy cells were then exposed to the compound pre-treated chlamydia for 68 hours and inclusions counted following staining of cells with Lugols iodine.

HIV (IHV-1RF) = test: Anti-viral (virucidal) assay: plate-bound HIV treated 10 minutes, C8166 cells added, syncytium score and XTT; format: cell-based; conditions: for Syncytia score day 5 (quadruplicate wells) / Syncytia score day 6 (quadruplicate wells): C8166 cells; for Mean Optical Readings at 450 nm: XTT cell viability; for Syncytia score day 6 (quadruplicate wells) / Mean Optical Readings at 450 nm / IC50: day 6; for IC50: XTT, virus treated 10 minutes, read-out: IC50 (virucidal)
Procedure: HIV was attached to the surface of 96-well cell culture plates using 100 μl of 50 μg/ml poly-L-lysine hydrobromide (PLL) of molecular weight >300 K for 1 h at RT. The outer wells were left uncoated and filled with 250 μl of PBS to counteract the effects of evaporation. The coated wells were washed twice with PBS and 25 μl of RPMI 1640 medium containing 5×10^3 TCID50 of IHV-1RF was added and incubated for 1 h at RT. The wells were then washed twice with PBS and 25 μl of varying concentrations of the test compounds made up with serum free medium (containing a constant 10% DMSO) were added to the wells in quadruplicate and the plates incubated at 37° C. for 10 minutes. The wells were again washed twice with PBS and 5×10^4 C8166 cells in a volume of 300 μl distributed to each well and the plates incubated for 5 and 6 days respectively. On days 5 and 6 the cells were assessed microscopically for the presence of cytopathic effect (syncytium formation) and recorded. In order to quantify the cytopathic effect, XIT which is metabolised by viable but not dead cells, was added and the absorbance read at 450 nm after […] incubation at 37° C.
An assessment of viral cytopathic effect was made microscopically on days 5 and 6, but the end point of the experiment was on day 6 when the level of virus infection (as determined by cell viability) was quantified by the use of XTT.

[1] = final conc 0.02 (M), working conc 0.04 (M)
[2] = final conc 0.4 (M), working conc 0.8 (M)
[3] = final conc 1 (M), working conc 2 (M), 5 minutes pre-treatment, McCoy cells 68 hours
[4] = final conc 1 (M), working conc 2 (M)
[5] = Human immunodeficiency virus 1, C8166

O=C1C=CC(=O)N1CCN1C(=O)C=CC1=O [Compound 1, ethyl bis-maleimide]
IODINE-STAINED INCLUSIONS/FIELD F1 (Chlamydia trachomatis; [1]): 0 inclusions/field
IODINE-STAINED INCLUSIONS/FIELD F2 (Chlamydia trachomatis; [1]): 0 inclusions/field
IODINE-STAINED INCLUSIONS/FIELD F3 (Chlamydia trachomatis; [1]): 0 inclusions/field
IODINE-STAINED INCLUSIONS/FIELD F4 (Chlamydia trachomatis; [1]): 0 inclusions/field
IODINE-STAINED INCLUSIONS/FIELD F5 (Chlamydia trachomatis; [1]): 0 inclusions/field
MEAN COUNT/FIELD (iodine-stained inclusions) (Chlamydia trachomatis; [1]): 0 inclusions/field
COMMENTS: inclusions seen on entire coverslip (Chlamydia trachomatis; [1]): 6 inclusions
TOTAL COUNT/FIELDS (iodine-stained inclusions) (Chlamydia trachomatis; [1]): 0
IODINE-STAINED INCLUSIONS/FIELD F1 (Chlamydia trachomatis; [2]): 0 inclusions/field
IODINE-STAINED INCLUSIONS/FIELD F2 (Chlamydia trachomatis; [2]): 0 inclusions/field
IODINE-STAINED INCLUSIONS/FIELD F3 (Chlamydia trachomatis; [2]): 0 inclusions/field
IODINE-STAINED INCLUSIONS/FIELD F4 (Chlamydia trachomatis; [2]): 0 inclusions/field
IODINE-STAINED INCLUSIONS/FIELD F5 (Chlamydia trachomatis; [2]): 0 inclusions/field
MEAN COUNT/FIELD (iodine-stained inclusions) (Chlamydia trachomatis; [2]): 0 inclusions/field
COMMENTS: inclusions seen on entire coverslip (Chlamydia trachomatis; [2]): No
TOTAL COUNT/FIELDS (iodine-stained inclusions) (Chlamydia trachomatis; [2]): 0
IODINE-STAINED INCLUSIONS/FIELD F1 (Chlamydia trachomatis; [3]): 0 inclusions/field
IODINE-STAINED INCLUSIONS/FIELD F2 (Chlamydia trachomatis; [4]): 0 inclusions/field
IODINE-STAINED INCLUSIONS/FIELD F3 (Chlamydia trachomatis; [4]): 0 inclusions/field
IODINE-STAINED INCLUSIONS/FIELD F4 (Chlamydia trachomatis; [4]): 0 inclusions/field
IODINE-STAINED INCLUSIONS/FIELD F5 (Chlamydia trachomatis; [4]): 0 inclusions/field
MEAN COUNT/FIELD (iodine-stained inclusions) (Chlamydia trachomatis; [4]): 0 inclusions/field
COMMENTS: inclusions seen on entire coverslip (Chlamydia trachomatis; [4]): No
TOTAL COUNT/FIELDS (iodine-stained inclusions) (Chlamydia trachomatis; [4]): 0
inhibition of the infection of McCoy cells with chlamydia (Chlamydia trachomatis): dose-dependent inhibition
Syncytia score day 5 (quadruplicate wells) (HIV (IHV-1RF); Conc 0.003 mM): ++++ (50-100% syncytia)
Syncytia score day 6 (quadruplicate wells) (HIV (IHV-1RF); Conc 0.003 mM): ++++ (50-100% syncytia)
Mean Optical Readings at 450 nm (HIV (IHV-1RF); Conc 0.003 mM): 0.4875
Syncytia score day 5 (quadruplicate wells) (HIV (IHV-1RF); Conc 0.01 mM): ++++ (50-100% syncytia)
Syncytia score day 6 (quadruplicate wells) (HIV (IHV-1RF); Conc 0.01 mM): ++++ (50-100% syncytia)
Mean Optical Readings at 450 nm (HIV (IHV-1RF); Conc 0.01 mM): 0.5028
Syncytia score day 5 (quadruplicate wells) (HIV (IHV-1RF); Conc 0.03 mM): ++++ (50-100% syncytia)
Syncytia score day 6 (quadruplicate wells) (HIV (IHV-1RF); Conc 0.03 mM): ++++ (50-100% syncytia)
Mean Optical Readings at 450 nm (HIV (IHV-1RF); Conc 0.03 mM): 0.5142
Syncytia score day 5 (quadruplicate wells) (HIV (IHV-1RF); Conc 0.1 mM): ++++ (50-100% syncytia)
Syncytia score day 6 (quadruplicate wells) (HIV (IHV-1RF); Conc 0.1 mM): ++++ (50-100% syncytia)
Mean Optical Readings at 450 nm (HIV (IHV-1RF); Conc 0.1 mM): 0.5347
Syncytia score day 5 (quadruplicate wells) (HIV (IHV-1RF); Conc 0.3 mM): +++ (25-50% syncytia)
Syncytia score day 6 (quadruplicate wells) (HIV (IHV-1RF); Conc 0.3 mM): +++ (25-50% syncytia)
Mean Optical Readings at 450 nm (HIV (IHV-1RF); Conc 0.3 mM): 0.5853
Mean Optical Readings at 450 nm (HIV (IHV-1RF); Conc 1 mM): 1.181
IC50 (HIV (IHV-1RF); [5]): 1000 µM

O=C1C=CC(=O)N1c1ccc(OCCOCCOCCOCCOc2ccc(N3C(=O)C=CC3=O)cc2)cc1 [Compound 2, PEG(5) bis phenyl bis maleimide]
IODINE-STAINED INCLUSIONS/FIELD F1 (Chlamydia trachomatis; [1]): 3 inclusions/field
IODINE-STAINED INCLUSIONS/FIELD F2 (Chlamydia trachomatis; [1]): 2 inclusions/field
IODINE-STAINED INCLUSIONS/FIELD F3 (Chlamydia trachomatis; [1]): 6 inclusions/field
IODINE-STAINED INCLUSIONS/FIELD F4 (Chlamydia trachomatis; [1]): 5 inclusions/field
IODINE-STAINED INCLUSIONS/FIELD F5 (Chlamydia trachomatis; [1]): 7 inclusions/field
MEAN COUNT/FIELD (iodine-stained inclusions) (Chlamydia trachomatis; [1]): 5 inclusions/field
TOTAL COUNT/FIELDS (iodine-stained inclusions) (Chlamydia trachomatis; [1]): 23
IODINE-STAINED INCLUSIONS/FIELD F1 (Chlamydia trachomatis; [2]): 1 inclusions/field
IODINE-STAINED INCLUSIONS/FIELD F2 (Chlamydia trachomatis; [2]): 2 inclusions/field
IODINE-STAINED INCLUSIONS/FIELD F3 (Chlamydia trachomatis; [2]): 2 inclusions/field
IODINE-STAINED INCLUSIONS/FIELD F4 (Chlamydia trachomatis; [2]): 1 inclusions/field
IODINE-STAINED INCLUSIONS/FIELD F5 (Chlamydia trachomatis; [2]): 5 inclusions/field
MEAN COUNT/FIELD (iodine-stained inclusions) (Chlamydia trachomatis; [2]): 2 inclusions/field
TOTAL COUNT/FIELDS (iodine-stained inclusions) (Chlamydia trachomatis; [2]): 11
IODINE-STAINED INCLUSIONS/FIELD F1 (Chlamydia trachomatis; [3]): 0 inclusions/field
IODINE-STAINED INCLUSIONS/FIELD F2 (Chlamydia trachomatis; [4]): 0 inclusions/field
IODINE-STAINED INCLUSIONS/FIELD F3 (Chlamydia trachomatis; [4]): 0 inclusions/field
IODINE-STAINED INCLUSIONS/FIELD F4 (Chlamydia trachomatis; [4]): 0 inclusions/field
IODINE-STAINED INCLUSIONS/FIELD F5 (Chlamydia trachomatis; [4]): 0 inclusions/field
MEAN COUNT/FIELD (iodine-stained inclusions) (Chlamydia trachomatis; [4]): 0 inclusions/field
COMMENTS: inclusions seen on entire coverslip (Chlamydia trachomatis; [4]): 6 inclusions
TOTAL COUNT/FIELDS (iodine-stained inclusions) (Chlamydia trachomatis; [4]): 0
inhibition of the infection of McCoy cells with chlamydia (Chlamydia trachomatis): dose-dependent inhibition
Syncytia score day 5 (quadruplicate wells) (HIV (IHV-1RF); Conc 0.003 mM): ++++ (50-100% syncytia)
Syncytia score day 6 (quadruplicate wells) (HIV (IHV-1RF); Conc 0.003 mM): ++++ (50-100% syncytia)
Mean Optical Readings at 450 nm (HIV (IHV-1RF); Conc 0.003 mM): 0.4883
Syncytia score day 5 (quadruplicate wells) (HIV (IHV-1RF); Conc 0.01 mM): ++++ (50-100% syncytia)
Syncytia score day 6 (quadruplicate wells) (HIV (IHV-1RF); Conc 0.01 mM): ++++ (50-100% syncytia)
Mean Optical Readings at 450 nm (HIV (IHV-1RF); Conc 0.01 mM): 0.4895
Syncytia score day 5 (quadruplicate wells) (HIV (IHV-1RF); Conc 0.03 mM): ++++ (50-100% syncytia)
Syncytia score day 6 (quadruplicate wells) (HIV (IHV-1RF); Conc 0.03 mM): ++++ (50-100% syncytia)
Mean Optical Readings at 450 nm (HIV (IHV-1RF); Conc 0.03 mM): 0.4928
Syncytia score day 5 (quadruplicate wells) (HIV (IHV-1RF); Conc 0.1 mM): ++++ (50-100% syncytia)
Syncytia score day 6 (quadruplicate wells) (HIV (IHV-1RF); Conc 0.1 mM): ++++ (50-100% syncytia)
Mean Optical Readings at 450 nm (HIV (IHV-1RF); Conc 0.1 mM): 0.4983
Syncytia score day 5 (quadruplicate wells) (HIV (IHV-1RF); Conc 0.3 mM): +++ (25-50% syncytia)
Syncytia score day 6 (quadruplicate wells) (HIV (IHV-1RF); Conc 0.3 mM): ++++ (50-100% syncytia)
Mean Optical Readings at 450 nm (HIV (IHV-1RF); Conc 0.3 mM): 0.5092
Mean Optical Readings at 450 nm (HIV (IHV-1RF); Conc 1 mM): 0.9895
IC50 (HIV (IHV-1RF); [5]): ~1000 µM
inhibition at 1000 µM (HIV (IHV-1RF); Human immunodeficiency virus 1, C8166, at 1 mM): ~50%
